Source: patent US20230416238A1, “N-[(1,3-BENZOXAZOL-2-YL)-HETEROCYCLE]AMIDE DERIVATIVES FOR THE TREATMENT AND PROPHYLAXIS OF HEPATITIS B VIRUS INFECTION” (Hoffmann-La Roche Inc., priority 2020, published 2023)

Key:
Assay type in all cases: cell-based
[1] = Cytotoxicity in PHH natural infection assay (Cell Counting Kit-8); settings: HBV-infected primary human hepatocytes, CCK8
Procedure, shortened: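 HBV-infected primary human hepatocytes (200 GE/cell, 4% PEG8000, 24 h), then sandwich-cultured 72 h. Cells dosed at varying concentrations for two 72-hour cycles, with medium refreshed. Cytotoxicity read by CCK-8 at end of treatment.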

HBeAg = experiment: PHH HBV natural infection assay, HBeAg (alphalisa); settings: Hepatitis B virus, Hepatocyte, read-out: HBeAg IC50
Procedure, shortened: (§1)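 Primary human hepatocytes infected with HBV at 200 GE/cell plus 4% PEG8000 for 24 h, then sandwich-cultured 72 h in medium with 1% DMSO. Compound applied twice at 72-h intervals; supernatant HBsAg and HBeAg quantified by AlphaLISA.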

HBsAg = experiment: PHH HBV natural infection assay, HBsAg (alphalisa); settings: Hepatitis B virus, Hepatocyte, read-out: HBsAg IC50
Procedure, shortened: as §1

Structure (SMILES)	CC50 at 144 h [1]	IC50 (HBeAg)	IC50 (HBsAg)
N=S(=O)(c1ccc(C(=O)NC2CCC3(CC2)CCN(c2nc4cc(Cl)ccc4o2)CC3)o1)C1CC1 (stereo not drawn) [Example 120, N-[3-(5-chloro-1,3-benzoxazol-2-yl)-3-azaspiro[5.5]undecan-9-yl]-5-(cyclopropylsulfonimidoyl)furan-2-carboxamide]	66.6 µM	1.43 µM	1.55 µM
O=C(NC1CCC2(CC1)CCN(c1nc3cc(Cl)ccc3o1)CC2)c1ccc(S(=O)(=O)CC2CC2)o1 [Example 121, N-[3-(5-chloro-1,3-benzoxazol-2-yl)-3-azaspiro[5.5]undecan-9-yl]-5-(cyclopropylmethylsulfonyl)furan-2-carboxamide]	> 100 µM	1.16 µM	1.54 µM
O=C(NC1CCC2(CC1)CCN(c1nc3cc(Cl)ccc3o1)CC2)c1ccc(S(=O)(=O)C2CC2)o1 [Example 122, N-[3-(5-chloro-1,3-benzoxazol-2-yl)-3-azaspiro[5.5]undecan-9-yl]-5-cyclopropylsulfonyl-furan-2-carboxamide]	> 100 µM	0.473 µM	0.384 µM
O=C(NC1CC2CN(c3nc4cc(Cl)ccc4o3)CC2C1)c1ccc(C(F)(F)F)o1 (stereo not drawn) [Example 123, N-[2-(5-chloro-1,3-benzoxazol-2-yl)-3,3a,4,5,6,6a-hexahydro-1H-cyclopenta[c]pyrrol-5-yl]-5-(trifluoromethyl)furan-2-carboxamide]	> 100 µM	5.47 µM	4.81 µM
O=C(NC1CC2CN(c3nc4cc(Cl)ccc4o3)CC2C1)C1CCS(=O)(=O)C1 (stereo not drawn) [Example 124, N-[2-(5-chloro-1,3-benzoxazol-2-yl)-3,3a,4,5,6,6a-hexahydro-1H-cyclopenta[c]pyrrol-5-yl]-1,1-dioxo-thiolane-3-carboxamide]	> 100 µM	13 µM	6.59 µM
O=C(NC1C2CN(c3nc4cc(Cl)ccc4o3)CC21)c1ccc(C(F)(F)F)o1 (stereo not drawn) [Example 125, N-[3-(5-chloro-1,3-benzoxazol-2-yl)-3-azabicyclo[3.1.0]hexan-6-yl]-5-(trifluoromethyl)furan-2-carboxamide]	> 100 µM	5.41 µM	4.74 µM
